From ChEMBL document CHEMBL1127336, “P1 aspartate-based peptide alpha-((2,6-dichlorobenzoyl)oxy)methyl ketones as potent time-dependent inhibitors of interleukin-1 beta-converting enzyme” (J Med Chem, 1994) come the findings set out here.

One test concerns the target Cathepsin B (Bos taurus) (UniProt P07688). Description: Compound was evaluated for the ability to inhibit cathepsin B purified from bovine spleen.
Test [1] in a line: Selectivity (ICE:cathepsin) of the compound; 700:1.
Test [2] has as its target T1, Caspase-1 (Homo sapiens) (UniProt P29466).
T1 sequence (whole entry): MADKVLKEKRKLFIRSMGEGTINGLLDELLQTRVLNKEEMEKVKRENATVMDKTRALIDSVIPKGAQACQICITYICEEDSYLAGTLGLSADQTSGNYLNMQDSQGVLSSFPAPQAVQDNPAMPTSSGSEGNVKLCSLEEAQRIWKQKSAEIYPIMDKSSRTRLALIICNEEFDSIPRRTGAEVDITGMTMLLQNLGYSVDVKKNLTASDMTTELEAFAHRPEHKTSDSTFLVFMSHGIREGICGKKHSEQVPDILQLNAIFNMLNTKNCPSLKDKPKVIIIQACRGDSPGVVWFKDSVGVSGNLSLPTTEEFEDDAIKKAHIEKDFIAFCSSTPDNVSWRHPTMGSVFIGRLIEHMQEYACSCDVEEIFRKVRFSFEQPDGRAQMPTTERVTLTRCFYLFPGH
Description: Compound was evaluated for the ability to inhibit Interleukin-1-beta-converting enzyme (ICE) purified from THP-1 cells.

Test [3] is described as follows: Selectivity (ICE:cathepsin) of the compound; 108:1.
For test [4], the target named is T1, Caspase-1 (Homo sapiens). Description: Compound was evaluated for the ability to inhibit Interleukin-1-beta-converting enzyme (ICE) purified from THP-1 cells; […].

In turn, `CC(C)[C@H](NC(=O)OCc1ccccc1)C(=O)N[C@@H](C)C(=O)N[C@@H](CC(=O)O)C(=O)COC(=O)c1c(Cl)cccc1Cl` displayed a k obs / 1 at Cathepsin B (Bos taurus) of 2250 M⁻¹ s⁻¹. Regarding `O=C(O)C[C@H](NC(=O)OCc1ccccc1)C(=O)COC(=O)c1c(Cl)cccc1Cl`, on Cathepsin B (Bos taurus), the k obs / 1 is less than 10 M⁻¹ s⁻¹. In addition, the Selectivity in test [1] is greater than 700. In the case of `CC(C)C(NC(=O)OCc1ccccc1)C(=O)N[C@@H](CC(=O)O)C(=O)COC(=O)c1c(Cl)cccc1Cl` (some centres not stated), the k obs / 1 on Cathepsin B (Bos taurus) was 380 M⁻¹ s⁻¹; on Caspase-1 (Homo sapiens) [2], 41000 M⁻¹ s⁻¹. The Selectivity in test [3] stood at 108.

`O=C(O)CC[C@H](NC(=O)OCc1ccccc1)C(=O)COC(=O)c1c(Cl)cccc1Cl`: the “k obs / 1” value on Caspase-1 (Homo sapiens) [4] was “No inhibition”.
